A word on the IC50: it is the concentration at which inhibition is half-maximal.

The values below come from US7485641B2, “Substituted 3-amino-pyrrolidino-4-lactams” (Pfizer, Inc., priority 2006, dated 2009).

The target of the test is T1, DPP-IV (Homo sapiens, UniProt P27487).
T1 construct: purchased Enzyme Systems Products SPE-01
Put plainly: In vitro assay for dipeptidyl peptidase inhibition. The format is biochemical. Conditions: n-value given in brackets; for IC50: read-out: DPP-IV IC50.

T1 sequence (P27487 whole entry, species assumed): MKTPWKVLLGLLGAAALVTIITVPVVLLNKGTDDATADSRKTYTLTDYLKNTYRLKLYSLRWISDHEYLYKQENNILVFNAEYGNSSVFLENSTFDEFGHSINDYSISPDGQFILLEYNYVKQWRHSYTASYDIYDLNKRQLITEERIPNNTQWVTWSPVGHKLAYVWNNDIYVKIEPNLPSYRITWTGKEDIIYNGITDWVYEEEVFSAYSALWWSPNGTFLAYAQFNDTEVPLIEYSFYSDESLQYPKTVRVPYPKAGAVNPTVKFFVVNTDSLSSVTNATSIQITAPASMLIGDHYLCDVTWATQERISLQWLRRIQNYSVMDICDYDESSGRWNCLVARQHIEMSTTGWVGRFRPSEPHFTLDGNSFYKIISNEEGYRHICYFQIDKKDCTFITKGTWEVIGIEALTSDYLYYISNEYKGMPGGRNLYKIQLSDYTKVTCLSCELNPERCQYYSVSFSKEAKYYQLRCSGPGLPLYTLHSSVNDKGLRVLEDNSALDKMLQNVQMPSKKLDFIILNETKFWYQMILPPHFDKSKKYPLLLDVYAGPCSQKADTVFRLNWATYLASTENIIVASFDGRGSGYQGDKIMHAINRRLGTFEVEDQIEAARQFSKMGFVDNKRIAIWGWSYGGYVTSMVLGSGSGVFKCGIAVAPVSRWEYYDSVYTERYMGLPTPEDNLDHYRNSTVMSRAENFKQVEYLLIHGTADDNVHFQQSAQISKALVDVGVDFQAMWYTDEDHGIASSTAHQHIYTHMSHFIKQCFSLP

Regarding `N[C@H]1CN(c2cc(N3CCC(F)(F)C3)nc(C(F)(F)F)n2)C[C@@H]1N1CCCCC1=O` [Example 14, 1-((3S,4S)-4-amino-1-(6-(3,3-difluoropyrrolidin-1-yl)-2-(trifluoromethyl)pyrimidin-4-yl)pyrrolidin-3-yl)piperidin-2-one], the concentration for half-maximal inhibition (IC50) came out at 45.1 nM.

`CCc1nc(N2C[C@H](N)[C@@H](N3CCCCC3=O)C2)cc(N2CCC(F)(F)C2)n1` [Example 15, 1-((3S,4S)-4-amino-1-(6-(3,3-difluoropyrrolidin-1-yl)-2-ethylpyrimidin-4-yl)pyrrolidin-3-yl)piperidin-2-one]: the IC50 turned out to be 39.8 nM. The same measure, in the same setting: in the case of `CC(C)c1nc(N2C[C@H](N)[C@@H](N3CCCCC3=O)C2)cc(N2CCC(F)(F)C2)n1` [Example 16, 1-((3S,4S)-4-amino-1-(6-(3,3-difluoropyrrolidin-1-yl)-2-isopropylpyrimidin-4-yl)pyrrolidin-3-yl)piperidin-2-oneformate] it was 136 nM.

In the case of `N[C@H]1CN(c2cc(N3CCC(F)(F)C3)nc(C3CC3)n2)C[C@@H]1N1CCCCC1=O` [Example 17, 1-((3S,4S)-4-amino-1-(2-cyclopropyl-6-(3,3-difluoropyrrolidin-1-yl)pyrimidin-4-yl)pyrrolidin-3-yl)piperidin-2-one], the concentration for half-maximal inhibition (IC50) was found to be 109 nM. Still for that read-out and setting: for `CCCc1nc(N2C[C@H](N)[C@@H](N3CCCCC3=O)C2)cc(N2CCC(F)(F)C2)n1` [Example 18, 1-((3S,4S)-4-amino-1-(6-(3,3-difluoropyrrolidin-1-yl)-2-propylpyrimidin-4-yl)pyrrolidin-3-yl)piperidin-2-oneformate] the value was 43.3 nM; for `CSc1nc(N2C[C@H](N)[C@@H](N3CCCCC3=O)C2)cc(N2CCC(F)(F)C2)n1` [Example 19, 1-((3S,4S)-4-amino-1-(6-(3,3-difluoropyrrolidin-1-yl)-2-(methylthio)pyrimidin-4-yl)pyrrolidin-3-yl)piperidin-2-one], 74.9 nM; for `CCSc1nc(N2C[C@H](N)[C@@H](N3CCCCC3=O)C2)cc(N2CCC(F)(F)C2)n1` [Example 20, 1-((3S,4S)-4-amino-1-(6-(3,3-difluoropyrrolidin-1-yl)-2-(ethylthio)pyrimidin-4-yl)pyrrolidin-3-yl)piperidin-2-one], 82.5 nM. Turning to `N[C@H]1CN(c2ncnc(N3CCC(F)(F)C3)c2F)C[C@@H]1N1CCCCC1=O` [Example 21, 1-((3S,4S)-4-amino-1-(6-(3,3-difluoropyrrolidin-1-yl)-5-fluoropyrimidin-4-yl)pyrrolidin-3-yl)piperidin-2-one], the concentration for half-maximal inhibition (IC50) was 218 nM. The same measure, in the same setting: for `CC(C)(C)c1nc(N2C[C@H](N)[C@@H](N3CCCCC3=O)C2)cc(N2CCC(F)(F)C2)n1` [Example 22, 1-((3S,4S)-4-amino-1-(2-tert-butyl-6-(3,3-difluoropyrrolidin-1-yl)pyrimidin-4-yl)pyrrolidin-3-yl)piperidin-2-one] the value was 832 nM. Still for that read-out and setting: in the case of `N[C@H]1CN(c2cc(N3CC[C@H](F)C3)ncn2)C[C@@H]1N1CC(F)(F)CCC1=O` [Example 23, 1-((3S,4S)-4-amino-1-(6-((S)-3-fluoropyrrolidin-1-yl)pyrimidin-4-yl)pyrrolidin-3-yl)-5,5-difluoropiperidin-2-one] it was 12 nM; in that of `N[C@H]1CN(c2ncnc(N3CC[C@H](F)C3)n2)C[C@@H]1N1CC(F)(F)CCC1=O` [Example 24, 1-((3S,4S)-4-amino-1-(4-((S)-3-fluoropyrrolidin-1-yl)-1,3,5-triazin-2-yl)pyrrolidin-3-yl)-5,5-difluoropiperidin-2-one], 47.8 nM; in that of `N[C@H]1CN(c2ncnc(N3CC[C@H](F)C3)n2)C[C@@H]1N1CCCCC1=O` [Example 25, 1-((3S,4S)-4-Amino-1-(4-((S)-3-fluoropyrrolidin-1-yl)-1,3,5-triazin-2-yl)pyrrolidin-3-yl)piperidin-2-onetrifluoroacetate], 80.2 nM. The same measure, in the same setting: in the case of `Cc1nc(N2CC[C@H](F)C2)cc(N2C[C@H](N)[C@@H](N3CC(F)(F)CCC3=O)C2)n1` [Example 26, 1-((3S,4S)-4-amino-1-(6-((S)-3-fluoropyrrolidin-1-yl)-2-methylpyrimidin-4-yl)pyrrolidin-3-yl)-5,5-difluoropiperidin-2-one] it was 37.3 nM; in that of `N[C@H]1CN(c2ncnc(N3C[C@@H](F)[C@@H](F)C3)n2)C[C@@H]1N1CCCCC1=O` [Example 28, 1-((3S,4S)-4-Amino-1-(4-((3R,4S)-3,4-difluoropyrrolidin-1-yl)-1,3,5-triazin-2-yl)pyrrolidin-3-yl)piperidin-2-onetrifluoroacetate], 67.8 nM. Turning to `N[C@H]1CN(c2ncnc(N3C[C@@H](F)[C@H](F)C3)n2)C[C@@H]1N1CCCCC1=O` [Example 29, 1-((3S,4S)-4-Amino-1-(4-((3R,4R)-3,4-difluoropyrrolidin-1-yl)-1,3,5-triazin-2-yl)pyrrolidin-3-yl)piperidin-2-onetrifluoroacetate], the concentration for half-maximal inhibition (IC50) came out at 154 nM. The same measure, in the same setting: for `N[C@H]1CN(c2ncnc(N3C[C@H](F)[C@@H](F)C3)n2)C[C@@H]1N1CCCCC1=O` [Example 30, 1-((3S,4S)-4-Amino-1-(4-((3S,4S)-3,4-difluoropyrrolidin-1-yl)-1,3,5-triazin-2-yl)pyrrolidin-3-yl)piperidin-2-onetrifluoroacetate] the value was 104 nM; for `N[C@H]1CN(c2ncnc(N3CCCC3)n2)C[C@@H]1N1CCCCC1=O` [Example 32, 1-((3S,4S)-4-Amino-1-(4-(pyrrolidin-1-yl)-1,3,5-triazin-2-yl)pyrrolidin-3-yl)piperidin-2-onetrifluoroacetate], 91.5 nM.

Take `Cc1nc(N2C[C@H](N)[C@@H](N3CC(F)(F)CCC3=O)C2)cc(N2CCCC(F)(F)C2)n1` [Example 33, 1-((3S,4S)-4-amino-1-(6-(3,3-difluoropiperidin-1-yl)-2-methylpyrimidin-4-yl)pyrrolidin-3-yl)-5,5-difluoropiperidin-2-onetrifluoroacetate]: the 50% inhibitory concentration (IC50) was determined as 97.7 nM. Still for that read-out and setting: in the case of `Cc1nc(N2C[C@H](N)[C@@H](N3CCCCC3=O)C2)cc(N2CCCC(F)(F)C2)n1` [Example 34, 1-((3S,4S)-4-amino-1-(6-(3,3-difluoropiperidin-1-yl)-2-methylpyrimidin-4-yl)pyrrolidin-3-yl)piperidin-2-onetrifluoroacetate] it was 277 nM; in that of `CC1(O)CCN(c2ncnc(N3C[C@H](N)[C@@H](N4CCCCC4=O)C3)n2)CC1` [Example 35, 1-{(3S,4S)-4-Amino-1-[4-(4-hydroxy-4-methyl-piperidin-1-yl)-[1,3,5]triazin-2-yl]-pyrrolidin-3-yl}-piperidin-2-onetrifluoroacetate], 558 nM. For the molecule `COC1(C)CCN(c2ncnc(N3C[C@H](N)[C@@H](N4CCCCC4=O)C3)n2)CC1.O=C(O)C(F)(F)F` [Example 36, 1-((3S,4S)-4-Amino-1-(4-(4-methoxy-4-methylpiperidin-1-yl)-1,3,5-triazin-2-yl)pyrrolidin-3-yl)piperidin-2-onetrifluoroacetate], the “DPP-IV Percent Inhibition at 300 nM” value (at 300 nM) was 22.2%(4). Regarding `N#Cc1ccccc1OC1CCN(c2ncnc(N3C[C@H](N)[C@@H](N4CCCCC4=O)C3)n2)CC1` [Example 37, 2-(1-(4-((3S,4S)-3-Amino-4-(2-oxopiperidin-1-yl)pyrrolidin-1-yl)-1,3,5-triazin-2-yl)piperidin-4-yloxy)benzonitriletrifluoroacetate], the 50% inhibitory concentration (IC50) worked out at 109 nM.
